Values after ≈ are worked out from the molar mass of the structure shown. Counter-ions that a name gives are not always drawn. Like-named read-outs stand apart in the source and are kept apart here.
Assays:
[1] = rat model, literature (Kelder et al. 1999); cited from earlier work
physchem = settings: for solubility kinetic at 90 min / solubility at 90 min: kinetic from dmso stock
Method: The aqueous and aqueous/methanol solutions were shaken for 90 minutes at room temperature. Using a 96-tip Biomek FX liquid handling system (Beckman Coulter, Fullterton, Calif.), the solutions were transferred to a MultiScreen-Solubility 96-well filterplate (MSSLBPC10, Millipore, Mass.), vacuum filtered, and collected into a clean 96-deepwell plate. […] The sample wells were diluted in the UV/Vis plate with pre-dispensed methanol (20% v/v) for spectroscopic consistency. The remaining portion of the filtrate was sealed and kept in a cool, dark place to be used within 2 hours in the permeability assay. […] The absorption spectra were then corrected for variance in path length by the PathCheck™ algorithm in the SoftMaxPro® software. Next, the optical density (OD) at an appropriate wavelength (λ) was determined for each compound by the analysis algorithm as follows: the UV-Visible spectra were analyzed with a program written in HPBASIC for Windows (TransEra Corporation, Orem, Utah). Briefly, from the spectrum of each well a heuristically matched, scaled and appropriately shifted baseline was subtracted. The locations (λ) and the values of all the peaks [OD(λ)] were then determined. […] In addition, built in user interface tools offered a convenient way to review and manually reassign the λ values to address special cases. When no peaks were found in the spectra, the OD values at 265 nm were used.
For the solubility calculation, a consensus λ was determined for the sample and reference spectra and the corresponding OD values were used in equation (1). The concentrations of the compounds in solution were determined by the following formula: [formula] where OD(λ)sample and OD(λ)Reference are the optical densities at a given wavelength for each compound and [Reference] is the same compound at a known reference concentration.

[2] = BBB-PAMPA effective permeability (Sol-PAMPA); settings: for Papp at 16 h: PAMPA; for AGY Ranking (CNS+/CNS−): ranking from BBB-Sol-PAMPA Pe; for Pe × 10^−6 (effective BBB permeability): BBB-PAMPA, pH 7.4 to 7.4, input at solubility limit, 16 hours, n=7
[3] = cited from earlier work
[4] = PAMPA
[5] = cited from earlier work; remark: listed apart in the source
in vitro = settings: PAMPA, pH 7.4

CN(C)CCC=C1c2ccccc2CCc2ccccc21 [Amitriptyline HCl, amitriptyline]
[Brain]/[Blood] [1]: 9.55
solubility kinetic at 90 min (physchem; pH 7.4, aqueous buffer): 163 µM
Papp at 16 h ([2]; pH 7.4): 12.8 ×10⁻⁶ cm/s
AGY Ranking (CNS+/CNS−) [2]: + (CNS+ compounds have a Pe>2.0×10^−6 cm/sec)

Cn1c(=O)c2c(ncn2C)n(C)c1=O [Caffeine, caffeine]
AGY Ranking (CNS+/CNS−) [2]: − (CNS- compounds have a Pe<2.0×10^−6 cm/sec)

NC(=O)N1c2ccccc2C=Cc2ccccc21 [Carbamazepine, carbamazepine]
[Brain]/[Blood] [1]: 1.00
solubility kinetic at 90 min (physchem; pH 7.4, aqueous buffer): 253 µM (≈ 59.8 µg/mL)
Papp at 16 h ([2]; pH 7.4): 12.9 ×10⁻⁶ cm/s
AGY Ranking (CNS+/CNS−) [2]: + (CNS+ compounds have a Pe>2.0×10^−6 cm/sec)

Clc1cccc(Cl)c1N=C1NCCN1 [Clonidine, clonidine]
[Brain]/[Blood] [1]: 1.29
solubility kinetic at 90 min (physchem; pH 7.4, aqueous buffer): 248 µM (≈ 57.1 µg/mL)
Papp at 16 h ([2]; pH 7.4): 2.01 ×10⁻⁶ cm/s
AGY Ranking (CNS+/CNS−) [2]: + (CNS+ compounds have a Pe>2.0×10^−6 cm/sec)

CNCCCN1c2ccccc2CCc2ccccc21 [Desipramine, desipramine]
Literature (solubility) ([3]; pH 7.4): 155 µM
[Brain]/[Blood] [1]: 10.00
solubility at 90 min (physchem; pH 3, aqueous buffer): > 350 µM
solubility at 90 min (physchem; pH 5, aqueous buffer): > 350 µM
solubility at 90 min (physchem; pH 7.4, aqueous buffer): > 350 µM
solubility kinetic at 90 min (physchem; pH 7.4, aqueous buffer): 274 µM (≈ 73 µg/mL)
solubility at 90 min (physchem; pH 9, aqueous buffer): > 350 µM
Papp at 16 h ([2]; pH 7.4): 17.9 ×10⁻⁶ cm/s
AGY Ranking (CNS+/CNS−) [2]: + (CNS+ compounds have a Pe>2.0×10^−6 cm/sec)

CN1CC[C@@]23CCCC[C@@H]2[C@@H]1Cc1ccc(O)cc13 [Dextrophan, dextrophan]
AGY Ranking (CNS+/CNS−) [4]: + (key: CNS+ compounds have a Pe>2.0×10^−6 cm/sec; CNS- compounds have a Pe<2.0×10^−6 cm/sec)
Pe × 10^−6 (effective BBB permeability) ([4]; pH 7.4): 3.14 ×10^−6 cm/sec
In Vivo CNS +/− [5]: +
pH 7.4 Solubility (physchem; pH 7.4, Table 2 test set, n=7): 300 μM

O=C(O)Cc1ccccc1Nc1c(Cl)cccc1Cl [Diclofenac, diclofenac]
Literature (solubility) ([3]; pH 5): 30 µM
Literature (solubility) ([3]; pH 7.4): >350 µM
Literature (solubility) ([3]; pH 9): >350 µM
solubility at 90 min (physchem; pH 3, aqueous buffer): 9 µM (≈ 2.67 µg/mL)
solubility at 90 min (physchem; pH 5, aqueous buffer): 18 µM (≈ 5.33 µg/mL)
solubility at 90 min (physchem; pH 7.4, aqueous buffer): 274 µM (≈ 81.1 µg/mL)
solubility at 90 min (physchem; pH 9, aqueous buffer): 324 µM (≈ 96 µg/mL)
Papp at 16 h [2]: ~10 ×10⁻⁶ cm/s

COCCCC/C(=N\OCCN)c1ccc(C(F)(F)F)cc1 [Fluvoxamine, fluvoxamine]
solubility kinetic at 90 min (physchem; pH 7.4, aqueous buffer): 207 µM (≈ 65.9 µg/mL)

Cc1cc(NC(=O)C2=C(O)c3ccccc3S(=O)(=O)N2C)no1 [Isoxicam, isoxicam]
solubility kinetic at 90 min (physchem; pH 7.4, aqueous buffer): 322 µM (≈ 108 µg/mL)
Papp at 16 h ([2]; pH 7.4): 0.71 ×10⁻⁶ cm/s
AGY Ranking (CNS+/CNS−) [2]: − (CNS- compounds have a Pe<2.0×10^−6 cm/sec)

CCn1cc(C(=O)O)c(=O)c2cc(F)c(N3CCNC(C)C3)c(F)c21 (centres unmarked) [Lomafloxacin, lomafloxacin]
pH 7.4 Solubility (physchem; 90 min, pH 7.4): 288 μM
Pe × 10^−6 (effective BBB permeability) [2]: 0.17 ×10^−6 cm/sec
AGY Ranking (CNS+/CNS−) [2]: − (CNS- compounds have a Pe<2.0×10^−6 cm/sec)

CN(C)C(=O)C(CCN1CCC(O)(c2ccc(Cl)cc2)CC1)(c1ccccc1)c1ccccc1 [Loperamide]
Papp (in vitro): 1.07 ×10⁻⁶ cm/s
solubility kinetic at 90 min (physchem; pH 7.4, aqueous buffer): 165 µM (≈ 78.7 µg/mL)
AGY Ranking (CNS+/CNS−) [2]: − (CNS- compounds have a Pe<2.0×10^−6 cm/sec)

C[C@]12N[C@H](Cc3ccccc31)c1ccccc12 [MK-801, dizocilpine]
solubility kinetic at 90 min (physchem; pH 7.4, aqueous buffer): 212 µM (≈ 46.9 µg/mL)

CC(C)(C)[N+]([O-])=Cc1ccccc1 [N-tert-Butyl-a-phenylnitrone, N-tert-Butyl-alpha-phenylnitrone]
AGY Ranking (CNS+/CNS−) [2]: + (CNS+ compounds have a Pe>2.0×10^−6 cm/sec)

Nc1ccc(/N=N/c2ccccc2)c(N)n1 [Phenazopyridine, phenazopyridine]
Literature (solubility) ([3]; pH 3): >350 µM
Literature (solubility) ([3]; pH 5): 150 µM
Literature (solubility) ([3]; pH 7.4): 58 µM
Literature (solubility) ([3]; pH 9): 49 µM
solubility at 90 min (physchem; pH 3, aqueous buffer): 332 µM (≈ 70.8 µg/mL)
solubility at 90 min (physchem; pH 5, aqueous buffer): 89 µM (≈ 19 µg/mL)
solubility at 90 min (physchem; pH 7.4, aqueous buffer): 86 µM (≈ 18.3 µg/mL)
solubility at 90 min (physchem; pH 9, aqueous buffer): 71 µM (≈ 15.1 µg/mL)

CN1C(C(=O)Nc2ccccn2)=C(O)c2ccccc2S1(=O)=O [Piroxicam, piroxicam]
Literature (solubility) ([3]; pH 3): 32 µM
Literature (solubility) ([3]; pH 5): 32 µM
Literature (solubility) ([3]; pH 7.4): 300 µM
Literature (solubility) ([3]; pH 9): >350 µM
solubility at 90 min (physchem; pH 3, aqueous buffer): 55 µM (≈ 18.2 µg/mL)
solubility at 90 min (physchem; pH 5, aqueous buffer): 66 µM (≈ 21.9 µg/mL)
solubility at 90 min (physchem; pH 7.4, aqueous buffer): 257 µM (≈ 85.2 µg/mL)
solubility at 90 min (physchem; pH 9, aqueous buffer): 336 µM (≈ 111 µg/mL)

CC(C)NCC(O)COc1cccc2ccccc12 (centres unmarked) [Propranolol, s-propranolol]
Literature (solubility) ([3]; pH 7.4): 240 µM
solubility at 90 min (physchem; pH 3, aqueous buffer): > 350 µM
solubility at 90 min (physchem; pH 5, aqueous buffer): > 350 µM
solubility at 90 min (physchem; pH 7.4, aqueous buffer): > 350 µM
solubility at 90 min (physchem; pH 9, aqueous buffer): > 350 µM

c1ccc2nc(N3CCNCC3)ccc2c1 [Quipazine]
solubility kinetic at 90 min (physchem; pH 7.4, aqueous buffer): 239 µM (≈ 51 µg/mL)
Papp at 16 h ([2]; pH 7.4): 14.9 ×10⁻⁶ cm/s
AGY Ranking (CNS+/CNS−) [2]: + (CNS+ compounds have a Pe>2.0×10^−6 cm/sec)

CNC(=C[N+](=O)[O-])NCCSCc1ccc(CN(C)C)o1 [Ranitidine HCl, ranitidine]
[Brain]/[Blood] [1]: 0.06
solubility kinetic at 90 min (physchem; pH 7.4, aqueous buffer): 174 µM
Papp at 16 h ([2]; pH 7.4): 0.02 ×10⁻⁶ cm/s
AGY Ranking (CNS+/CNS−) [2]: − (CNS- compounds have a Pe<2.0×10^−6 cm/sec)

Cl.NC1CCN(c2cccc(Cl)n2)CC1 [SR-57227A]
pH 7.4 Solubility (physchem; pH 7.4, Table 2 test set, n=7): 294 μM
Pe × 10^−6 (effective BBB permeability) [2]: 6.12 ×10^−6 cm/sec
AGY Ranking (CNS+/CNS−) [2]: + (CNS+ compounds have a Pe>2.0×10^−6 cm/sec)

Cn1c(=O)c2[nH]cnc2n(C)c1=O [Theophylline, theophylline]
Literature (solubility) ([3]; pH 7.4): >350 µM
solubility at 90 min (physchem; pH 3, aqueous buffer): 330 µM (≈ 59.5 µg/mL)
solubility at 90 min (physchem; pH 5, aqueous buffer): 337 µM (≈ 60.7 µg/mL)
solubility at 90 min (physchem; pH 7.4, aqueous buffer): 290 µM (≈ 52.2 µg/mL)
solubility at 90 min (physchem; pH 9, aqueous buffer): > 350 µM

c1cc(CN2CCCCC2)cc(OCCCNc2nc3ccccc3s2)c1 [Zolantidine]
[Brain]/[Blood] [1]: 1.38
solubility kinetic at 90 min (physchem; pH 7.4, aqueous buffer): 108 µM (≈ 41.2 µg/mL)
Papp at 16 h ([2]; pH 7.4): 12.5 ×10⁻⁶ cm/s
AGY Ranking (CNS+/CNS−) [2]: + (CNS+ compounds have a Pe>2.0×10^−6 cm/sec)

— US20050106745A1, “Combination of solubility and membrane permeability measurement methods for profiling of chemical compounds” (AGY Therapeutics, Inc., priority 2003, published 2005)
